Test results reported in patent US10233426B2, “Method for inducing cardiac differentiation of pluripotent stem cell with low-molecular compounds” (KYOTO UNIVERSITY, priority 2014, dated 2019).

Experiments:
[1] = system: monkey ES cell line transfected with an αMHC promoter-driven GFP gene; assay: Chemical screening: GFP fluorometry for cardiac differentiation of monkey ES cells; format: cell-based, cynomolgus monkey; settings: for intensity of GFP fluorescence relative to control culture (KY02111 only, assigned to one): GFP fluorometry day 9
Protocol: Pluripotent stem cells were cultured in culture media to which the test compounds were added in different concentrations (0.3 μM, 1 μM, 3 μM and 10 μM) in early phase and late phase of differentiation of the cells. Cells from the culture were subjected to GFP fluorometry in accordance with the cardiac differentiation protocol shown in FIG. 1a. Besides the test compounds, 10 μM KY02111 was included in the culture media for the late phase differentiation. The intensity of GFP fluorescence determined in the cells from the control culture, which was cultured with no test compound other than KY02111, was assigned to one.
The scheme of chemical screening is illustrated in FIG. 1a. Compounds were screened for the ability of increasing GFP fluorescence compared with the control (KY02111 alone) using a monkey ES cell line transfected with an αMHC promoter-driven GFP gene (Minami et al., Cell Reports 2, 1448-1460, 2012, which is incorporated herein by reference). The ES cell line was derived from a monkey ES cell line (cynomolgus monkey CMK6.4) by transfecting the cells with a vector which expresses green fluorescent protein (GFP) under control by a promoter of α-MHC gene (a marker of cardiac differentiation). The cells were plated at 4.0×10^5 cells per well in 6 well plates (Asahi Glass/5816-006: Ezview culture plates) and cultured for nine days in an IMDM-based medium for cardiac differentiation (200 ml IMDM medium (Sigma 13390), with 50 ml calf serum (GIBCO 10099-141), 2.5 ml MEM non-essential amino acid solution (Sigma M7145), 2.5 ml penicillin-streptomycin ([…]), 2.5 ml 200 mM L-glutamine, 2 ul 2-mercaptoethanol (Sigma M7522), and 255 ul 5N NaOH). Each test compound was added to the medium at different concentrations in the early phase (day 0 to day 3) and the late phase (day 4 to day 7) of cardiac differentiation. Cells obtained from the culture on day 9 were subjected to GFP fluorometry with a Metamorph imaging system. […]

[2] = system: mesoderm-related genes (MSGN1, T, MIXL1 and NODAL); assay: Quantitative PCR for expression of mesoderm-related genes under PFCD condition; format: cell-based, human; settings: IMR90-1; for expression level of NODAL / expression of MSGN1, T and MIXL1: 1 μM XAV939, 0.3 μM A419259, 10 μM AG1478, 3 μM KY03-I, day 3 to day 4, mRNA on day 4, FIG. 3f; for expression of the mesoderm-related genes (MSGN1, T, MIXL1 and NODAL) vs DMSO control: 2 μM CHIR99021 or 0.3 μM PMA alone, day 0 to day 2, mRNA on day 2, FIG. 3e
Protocol: A human iPS cell line (IMR90-1 cultured on MEF feeder) was cultured in PFCD culture media, to which 2 μM CHIR99021 or 0.3 μM PMA or the both (CHIR99021+PMA) were added for early phase of cardiac differentiation (day 0 to day 2). On day 2, mRNA was extracted the cultured cells and analyzed by quantitative PCR for the expression of mesoderm-related genes (MSGN1, T, MIXL1 and NODAL) (FIG. 3e). As a control, cells were cultured similarly, but with DMSO in place of the test compounds. The gene expression level in the control cells was assigned to one. […] In contrast, the expression of the genes was reduced when PMA was added to the culture. However, the reduction in gene expression by PMA was counteracted and reversed when CHIR99021 was added in combination with PMA (in accordance with the optimal PFCD condition).
A human iPS cell line (IMR90-1 from culture on MEF feeder) was cultured in PFCD media with one of 1 μM XAV939, 0.3 μM A419259, 10 μM AG1478 or 3 μM KY03-I, or all of them (XAV939+A419259+AG1478+KY03-I) in late phase of cardiac differentiation (day 3 to day 4). On day 4, mRNA was extracted from the cultured cells and analyzed by quantitative PCR for the expression of mesoderm-related genes (MSGN1, T, MIXL1 and NODAL) (FIG. 3f).

[3] = system: monkey ES cell line transfected with an αMHC promoter-driven GFP gene; assay: Chemical screening: GFP fluorometry for cardiac differentiation of monkey ES cells; format: cell-based, cynomolgus monkey; settings: alone or in combination with KY02111 (10 μM in late phase)
IMR90-1 = assay: Count of differentiated cardiomyocytes after culture under PFCD condition; format: cell-based, human; settings: IMR90-1, PFCD suspension culture, day 14; FIG. 3d
Text: The differentiated cardiomyocytes was counted in the cell population from suspension or adhesion culture under PFCD condition of the pluripotent stem cell lines. The counts of differentiated cells per 2×10^6 undifferentiated cells are shown in the graph of FIG. 2d. The differentiation was more induced by suspension culture than adhesion culture in most of the stem cell lines. The cell count, as well as the flow cytometry, was taken on day 14.
To determine the contribution of each of the six compounds (CHIR99021, PMA, KY03-I, XAV939, AG1478, and A419259) to PFCD under suspension culture condition, IMR90-1 (from culture on MEF feeder) was cultured in media to which different combinations of five of the compounds were added. Cells from the culture were analyzed by flow cytometry using a cTnT antibody for staining. A part of the cells from culture were not treated with the primary antibody to serve as a negative control. Thirty thousand cells from each sample were loaded to a flow cytometer FACSCantoII.
The differentiated cardiomyocytes was counted in a cultured cell population corresponding to that of FIG. 3c. […] The cell count, as well as the flow cytometry, was taken on day 14.

[4] = system: cells from suspension or adhesion culture of IMR90-1 under PFCD condition; assay: Whole-cell patch clamp electrophysiology of PFCD cardiomyocytes; format: cell-based, human; settings: IMR90-1 PFCD cardiomyocytes, day 30; FIG. 4k
Text: Comparison was made between cells from suspension culture and cells from adhesion culture in terms of electrophysiology of cells by using a whole-cell patch clamp technique. For this purpose, IMR90-1 (from culture on MEF feeder) was suspension or adhesion cultured under PFDC condition. Cells were harvested on day 30 for the analysis. In action potential waveforms in the cells from suspension culture and the cells from adhesion culture, there was no significant difference between the cell populations in terms of RP (resting potential; around −60 mV) (FIGS. 4d and 4e) and APD90 (action potential duration; about 0.7 sec) (FIGS. 4d and 4g). […] ICa (Voltage-gated Ca channel current) was also higher in the cells from suspension culture than the cells from adhesion culture, but the difference was not significant (FIG. 4i). […] IKs (KCQN1 channel current) was higher in the cells from suspension culture than the cells from adhesion culture (FIG. 4j).

[5] = Induction of cardiac differentiation by a procedure as described in the Examples in WO 2012/026491; format: cell-based
[6] = system: monkey ES cell line transfected with an α-MHC promoter-driven GFP gene; settings: culture with PMA (all six compounds); without PMA (other five compounds) only weak fluorescence; FIG. 3a
Text: A monkey ES cell line transfected with an α-MHC promoter-driven GFP gene was suspension cultured under PFCD condition in culture media with PMA (with all the six compounds added) or without PMA (with the five compounds other than PMA added) (FIG. 2a). The cells from the culture with PMA are shown in the left-hand micrographs, and the cells from the culture without PMA are shown in the right-hand micrographs.

[7] = 10 to 30 μM in late phase, FIG. 1d

Compound: COc1cc2ncnc(Nc3cccc(Cl)c3)c2cc1OC [AG1478]
- intensity of GFP fluorescence relative to control culture (KY02111 only, assigned to one) ([1]; test compound 0.3 μM in Early phase (day 0 to day 3), 10 μM KY02111 in late phase): 0.97
- intensity of GFP fluorescence relative to control culture (KY02111 only, assigned to one) ([1]; test compound 0.3 μM in Late phase (day 4 to day 7) with 10 μM KY02111): 1.24
- intensity of GFP fluorescence relative to control culture (KY02111 only, assigned to one) ([1]; test compound 1 μM in Early phase (day 0 to day 3), 10 μM KY02111 in late phase): 0.89
- intensity of GFP fluorescence relative to control culture (KY02111 only, assigned to one) ([1]; test compound 1 μM in Late phase (day 4 to day 7) with 10 μM KY02111): 1.53
- intensity of GFP fluorescence relative to control culture (KY02111 only, assigned to one) ([1]; test compound 3 μM in Early phase (day 0 to day 3), 10 μM KY02111 in late phase): 0.35
- intensity of GFP fluorescence relative to control culture (KY02111 only, assigned to one) ([1]; test compound 3 μM in Late phase (day 4 to day 7) with 10 μM KY02111): 2.03
- intensity of GFP fluorescence relative to control culture (KY02111 only, assigned to one) ([1]; test compound 10 μM in Early phase (day 0 to day 3), 10 μM KY02111 in late phase): 0.05
- intensity of GFP fluorescence relative to control culture (KY02111 only, assigned to one) ([1]; test compound 10 μM in Late phase (day 4 to day 7) with 10 μM KY02111): 3.24
- cardiac differentiation (screening conclusion) ([1]; under appropriate conditions, Table 1): promoted
- expression level of NODAL [2]: not significantly different
- expression of MSGN1, T and MIXL1 [2]: reduced
- increase of cardiac differentiation [3, 7]: two- to three-fold

Compound: Cc1c[nH]c(-c2cnc(NCCNc3ccc(C#N)cn3)nc2-c2ccc(Cl)cc2Cl)n1 [CHIR99021]
- cardiomyocyte count on omission of the compound from the six-compound culture (IMR90-1): significant reduction
- expression of the mesoderm-related genes (MSGN1, T, MIXL1 and NODAL) vs DMSO control [2]: significantly increased

Compound: CCS(=O)(=O)N(C)[C@H]1c2cc(C#N)ccc2OC(C)(C)[C@@H]1O [Chromanol293B]
- increase in APD90, cells from suspension culture compared with cells from adhesion culture [4]: significantly higher

Compound: Cc1cccc(CCN2CCC(C(=O)c3ccc(NS(C)(=O)=O)cc3)CC2)n1 [E4031]
- increase in APD90, cells from suspension culture compared with cells from adhesion culture [4]: not significantly different

Compound: COc1ccc(CCCC(=O)Nc2nc3ccc(I)cc3s2)cc1OC [KY03-I, 2-(4-(3,4-dimethoxyphenyl)propanamido)-6-iodobenzothiazole]
- expression level of NODAL [2]: not significantly different
- expression of MSGN1, T and MIXL1 [2]: reduced
- effect of inducing cardiac differentiation [5]: found to have the effect of inducing cardiac differentiation

Compound: CCCCCCCCCCCCCC(=O)O[C@@H]1[C@@H](C)[C@@]2(O)[C@@H](C=C(CO)C[C@]3(O)C(=O)C(C)=C[C@@H]23)[C@@H]2C(C)(C)[C@]12OC(C)=O [PMA, Phorbol 12-myristate 13-acetate]
- cardiomyocyte count on omission of the compound from the six-compound culture (IMR90-1): significant reduction
- GFP fluorescence of colonies [6]: mostly GFP-positive
- expression of the mesoderm-related genes (MSGN1, T, MIXL1 and NODAL) vs DMSO control [2]: reduced
- increase of cardiac differentiation ([3]; 0.03 to 0.3 μM in early phase, FIG. 1c): three- to eight-fold

Compound: COc1cc2ncnc(Nc3ccc(F)c(Cl)c3)c2cc1OCCCN1CCOCC1 [gefitinib]
- increase of cardiac differentiation [3, 7]: two- to three-fold
